This is an account of results in patent US9161951B2, “Parenteral nutrition composition containing iron” (priority 2005, dated 2015).

The conditions of series [1]: single parenteral nutrition component; cited from earlier work.
For series [2] the following is noted: in vivo; cited from earlier work.
The conditions of series [3]: patients receiving TPN, 87.5-175 mg/week iron i.v., 3 week period; cited from earlier work.
The subject of a further series is iron deficiency anemia. Particulars: 15 mg in PN admixture i.v. over 6 hours every day, 3 months. An excerpt:
A patient with a history of bowel resection, secondary to inflammatory bowel disease is currently receiving TPN therapy at home. The patient develops iron deficiency anemia, secondary to ongoing bloody diarrhea and malabsorption of iron. The patient is unable to take iron supplements by mouth due to bloating and diarrhea.

As to `O=C([O-])CC(O)(CC(=O)O)C(=O)[O-].[Fe+2]` [ferrous citrate], in series [1], the “duration of compatibility with amino acid solution” value is 1 days.
With `O=P([O-])([O-])OP(=O)([O-])[O-].[Sn+2].[Sn+2]` [stannous pyrophosphate], in series [2], the reported adverse effects result was “cause hypocalcemia and immediate toxic effects”.
Regarding iron dextran, the “effect on serum iron levels” value in series [3] is “effectively raised serum iron levels”.
“soluble ferric pyrophosphate [soluble FePPi]”: the “correction of iron deficiency anemia” value in the series with iron deficiency anemia is recorded as “effectively corrects iron deficiency anemia”.
